Consider six compounds from patent publication US20050203169A1, “Methods and compositions for treating diseases associated with excesses in ACE” (priority 2001, published 2005).

Like-named read-outs stand apart in the source and are kept apart here.

In data set [1] the test system is patient with end-stage COPD. The data set is described as follows: Outcome for patient with COPD on ramipril.
Data set [2] has as its system serum potassium. From the text: As described above, fludrocortisone acetate ([…]) can be used to control serum K+ concentration. […] Diabetes Technology & Therapeutics. […] This can be easily achieved using […] (fludrocortisone acetate; see Table A).
Data set [3] has as its system patients with kidney failure. The data set is described as follows: Clinical observations in patients with kidney failure. It counts as in vivo, human.
The target of data set [4] is T1, circulating ACE (Homo sapiens, UniProt P12821).
T1 construct: from tissue; host or cells: circulation (blood, plasma or serum) of dosed subjects
T1 sequence (P12821 30-1232 limits assumed): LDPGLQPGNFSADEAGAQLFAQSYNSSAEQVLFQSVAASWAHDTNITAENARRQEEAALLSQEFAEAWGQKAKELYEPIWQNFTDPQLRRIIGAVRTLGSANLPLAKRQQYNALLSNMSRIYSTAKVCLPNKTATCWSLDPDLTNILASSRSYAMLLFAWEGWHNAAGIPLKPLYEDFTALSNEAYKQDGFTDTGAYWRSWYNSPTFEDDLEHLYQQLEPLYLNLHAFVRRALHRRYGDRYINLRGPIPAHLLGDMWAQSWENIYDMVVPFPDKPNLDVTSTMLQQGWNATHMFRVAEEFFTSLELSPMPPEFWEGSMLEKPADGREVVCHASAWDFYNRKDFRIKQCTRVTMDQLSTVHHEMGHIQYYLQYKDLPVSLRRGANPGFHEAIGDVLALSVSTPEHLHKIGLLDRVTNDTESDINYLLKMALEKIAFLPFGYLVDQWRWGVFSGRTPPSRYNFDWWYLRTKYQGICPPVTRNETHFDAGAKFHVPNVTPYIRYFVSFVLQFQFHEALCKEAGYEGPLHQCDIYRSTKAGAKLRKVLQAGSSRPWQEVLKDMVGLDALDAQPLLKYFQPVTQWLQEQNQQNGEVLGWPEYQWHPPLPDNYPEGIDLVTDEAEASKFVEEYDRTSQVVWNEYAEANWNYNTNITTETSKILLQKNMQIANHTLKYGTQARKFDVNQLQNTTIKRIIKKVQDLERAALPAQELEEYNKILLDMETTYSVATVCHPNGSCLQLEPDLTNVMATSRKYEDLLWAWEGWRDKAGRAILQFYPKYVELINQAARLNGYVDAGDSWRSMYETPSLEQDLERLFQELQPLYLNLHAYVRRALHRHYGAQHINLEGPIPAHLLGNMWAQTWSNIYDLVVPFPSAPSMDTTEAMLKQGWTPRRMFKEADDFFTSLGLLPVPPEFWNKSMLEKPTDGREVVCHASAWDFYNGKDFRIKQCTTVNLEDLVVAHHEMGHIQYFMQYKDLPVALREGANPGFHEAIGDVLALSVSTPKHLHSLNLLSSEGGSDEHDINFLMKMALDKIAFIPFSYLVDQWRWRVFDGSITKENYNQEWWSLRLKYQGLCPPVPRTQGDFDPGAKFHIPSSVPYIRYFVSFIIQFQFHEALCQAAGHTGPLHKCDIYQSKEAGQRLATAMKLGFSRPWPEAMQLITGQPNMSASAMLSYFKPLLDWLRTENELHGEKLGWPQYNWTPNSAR
The conditions noted are these: cited from earlier work; for circulating ACE inhibited: 5 mg dose; for inhibition of enzyme activity: equal amount (5 mg).

Data set [5] has as its target ACE (hydrophobic and hydrophilic active site) (Homo sapiens, UniProt P12821). The conditions noted are these: cited from earlier work.
The subject of data set [6] is patients on ACE inhibitors. The conditions noted are these: cited from earlier work.
For data set [7], the system named is patients with CRF (serum creatinine of at least 2 mg/dl). The data set is described as follows: Time to Dialysis in patients with chronic renal failure. It counts as in vivo, human. The conditions noted are these: conventional Rx <40 mg/d. Here is the method: Outcomes data for patients with CRF due to hypertension, determined as Time to Dialysis, for patients with serum creatinine of at least 2 mg/dl at the first clinic visit:
The following are the expected differences in outcomes for patients with CRF due to NIDDM, determined as Time to Dialysis, for patients with serum creatinine of at least 2 mg/dl at the first clinic visit:
The following are the expected differences in outcomes for patients with ADPKD, determined as Time to Dialysis, for patients with serum creatinine of at least 2 mg/di at the fist clinic visit.

For data set [8] the following is noted: compared with ramipril; cited from earlier work.
The subject of data set [9] is blood pressure (index of maximum tissue ACE inhibition). The conditions noted are these: rats, IV; cited from earlier work.
Data set [10] deals with new cases of NIDDM. The conditions noted are these: HOPE study (NEJM Jan. 21, 2000); cited from earlier work.
For data set [11], the system named is hemodialysis patients. The data set is described as follows: Ramipril in hemodialysis patients with ESRD due to hypertension. The class given is in vivo, human. The conditions noted are these: 5 mg/day; two black hemodialysis patients.

Chain of ACE (hydrophobic and hydrophilic active site) (P12821 30-1306): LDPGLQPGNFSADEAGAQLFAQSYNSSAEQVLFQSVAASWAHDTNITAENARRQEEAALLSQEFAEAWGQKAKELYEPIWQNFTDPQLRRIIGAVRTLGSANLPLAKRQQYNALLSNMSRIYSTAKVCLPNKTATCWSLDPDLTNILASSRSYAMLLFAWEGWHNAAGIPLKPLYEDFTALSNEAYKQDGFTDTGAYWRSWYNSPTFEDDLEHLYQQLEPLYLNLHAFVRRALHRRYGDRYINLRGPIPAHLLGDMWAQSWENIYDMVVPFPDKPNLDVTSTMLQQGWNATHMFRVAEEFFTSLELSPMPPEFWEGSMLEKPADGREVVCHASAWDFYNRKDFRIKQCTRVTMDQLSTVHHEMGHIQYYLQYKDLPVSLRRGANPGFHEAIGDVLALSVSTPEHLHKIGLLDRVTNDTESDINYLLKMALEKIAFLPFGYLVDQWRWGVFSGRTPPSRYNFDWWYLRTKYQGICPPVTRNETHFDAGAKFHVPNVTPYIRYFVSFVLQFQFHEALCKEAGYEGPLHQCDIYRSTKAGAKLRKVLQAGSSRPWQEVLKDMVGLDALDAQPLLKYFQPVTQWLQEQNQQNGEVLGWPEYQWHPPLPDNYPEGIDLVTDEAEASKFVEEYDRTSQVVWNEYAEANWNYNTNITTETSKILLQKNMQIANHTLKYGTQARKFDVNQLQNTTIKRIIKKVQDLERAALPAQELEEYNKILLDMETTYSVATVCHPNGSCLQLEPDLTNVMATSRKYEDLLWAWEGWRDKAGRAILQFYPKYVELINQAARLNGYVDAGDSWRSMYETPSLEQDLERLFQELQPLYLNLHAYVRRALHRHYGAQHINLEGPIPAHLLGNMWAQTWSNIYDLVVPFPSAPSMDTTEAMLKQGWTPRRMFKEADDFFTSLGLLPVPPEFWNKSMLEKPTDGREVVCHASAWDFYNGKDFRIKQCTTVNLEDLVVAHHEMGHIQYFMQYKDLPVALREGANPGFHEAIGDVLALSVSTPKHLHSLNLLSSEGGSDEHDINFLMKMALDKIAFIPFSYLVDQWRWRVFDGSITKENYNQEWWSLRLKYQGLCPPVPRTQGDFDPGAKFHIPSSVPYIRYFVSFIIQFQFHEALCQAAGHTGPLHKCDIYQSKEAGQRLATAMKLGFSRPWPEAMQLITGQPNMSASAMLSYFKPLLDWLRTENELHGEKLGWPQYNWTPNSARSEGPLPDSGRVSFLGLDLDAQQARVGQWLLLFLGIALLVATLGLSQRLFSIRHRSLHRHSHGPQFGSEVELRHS

Regarding `CCOC(=O)C1=C(COCCN)NC(C)=C(C(=O)OC)C1c1ccccc1Cl` (stereo not drawn) [Amlodipine], the “adverse event when added for BP control” value in [1] (COPD patient on ramipril) is “Developed CHF”.

Take `CC(=O)OCC(=O)[C@@]1(O)CC[C@H]2[C@@H]3CCC4=CC(=O)CC[C@]4(C)[C@@]3(F)[C@@H](O)C[C@@]21C` [Florinef, fludrocortisone acetate]: the “volume (fluid) retention” value in data set [2] (in vivo) was “# retention and congestive heart failure. Clinical observation indicates that volume retention occurs with daily FLORINEF but not with less-than-daily use, even up to five times a week”. In addition, the “serum potassium under adequate control” value in data set [2] (same daily dose despite higher dose of ACE inhibitor) is reported as “below 5.3 mEq/l”. Moreover, the “control of serum potassium” value in data set [2] (up to 0.1 mg daily, chronic renal failure patients on high dose ACE inhibitor (e.g. 2 mg/kg/day quinapril)) is given as “could control serum potassium”.

As for `CCCCc1nc(Cl)c(CO)n1Cc1ccc(-c2ccccc2-c2nn[nH]n2)cc1` [Losartan], in data set [3] (50 mg/day, patients with kidney failure), the “benefit when added to QUINAPRIL” value is “no added benefit”. Also, in data set [2] (combined with an ACE inhibitor), the “effect on serum potassium” value is “elevation of serum potassium”.

In the case of `CCOC(=O)[C@H](CCc1ccccc1)N[C@@H](C)C(=O)N1CCC[C@H]1C(=O)O` [enalapril], in [4], the “circulating ACE inhibited” value is 47% and the “inhibition of enzyme activity” value is given as 50%. Also, in data set [5] (hydrophilic site in the circulating form of the enzyme), the “off-rate t(1/2)” value was ~4 h.

For the compound `CCOC(=O)[C@H](CCc1ccccc1)N[C@@H](C)C(=O)N1Cc2ccccc2C[C@H]1C(=O)O` [quinapril], the “serum creatinine on treatment” value in data set [3] (Patient, 20 mg/day given hs, decreased from 4.5) is given as 1.7 mg/di. Also, in data set [3] (comparison of quinapril with ramipril), the “slowing down kidney failure” value is “superior to RAMIPRIL”. For the same compound, the dose-toxicity curve entry in [6] (from 5 mg/day to 80 mg/day) is recorded as “flat”. In [6] (use by 12,000 patients), the “patients with elevation of mood” value was 20%. For the same compound, the “Time to Dialysis” value in [7] (ADPKD, Caucasian men) turned out to be 8.8 yr; in data set [7] (CRF due to NIDDM, African American men), 3.3 yr; in [7] (CRF due to NIDDM, Caucasian men), 2.7 yr; in data set [7] (CRF due to hypertension, African American men), 3.6 yr; in data set [7] (CRF due to hypertension, Caucasian men), 4.3 yr. The “octanol: water partition coefficient” value in data set [8] was “higher”. Moreover, in data set [9], the “dose at which maximum blood pressure lowering occurred” value was 3 mg/kg. The “off-rate t(1/2)” value in data set [5] (hydrophobic active site) is ~24 h.

Consider `CCOC(=O)[C@H](CCc1ccccc1)N[C@@H](C)C(=O)N1[C@H](C(=O)O)C[C@@H]2CCC[C@@H]21` [ramipril], for which, in data set [4], the “circulating ACE inhibited” value is recorded as 97% and the “inhibition of enzyme activity” value is “greater than 95%”. For the same compound, the “new cases of NIDDM” value in data set [10] is recorded as “prevention of new cases of NIDDM”. Moreover, in data set [11], the serum glucose amounted to 40 mg/dL and the serum potassium entry was “above 6 mEq/l”. Further, in data set [1] (8/99, baseline 0.87 L), the FEV1 turned out to be 0.83 L. The BP in data set [1] (currently on 600 mg/d) was 135/80. Also, in data set [1] (emphysema (COPD)), the “effect on pulmonary hypertension” value is given as “appears to lower pulmonary hypertension”. In addition, the non-fluid weight gain in data set [1] (human, in vivo) is reported as 25 lb. In addition, the hospitalization entry in [1] (period of over five years) is on record as “Hospitalized for CHF but not for COPD”. The BP in [1] (two weeks after start of 2.5 mg/d, first seen with BP 104/60) is 180/110. Further, the “off-rate t(1/2)” value in data set [5] (hydrophobic active site) was ~24 h.
